{"source": "patent US20260240962A1", "about": "“PHARMACEUTICAL COMPOSITION FOR TREATING AND/OR PREVENTING CANCER” (TORAY INDUSTRIES, INC., priority 2023, published 2026)", "key": {"[1]": {"system": "CAPRIN-1 protein on the membrane surface of the cancer cells", "test": "Flow cytometry of CAPRIN-1 protein on the membrane surface of HCT-116 treated with low molecular weight compounds", "assay_type": "cell-based, human", "conditions": "1 to 3 days, vs DMSO negative control", "experimental": "(§1) 2×10^5 cancer cells suspended in Dulbecco's PBS(−) containing 1% fetal bovine serum (hereinafter, 1% FCS-PBS(−)) were reacted with an antibody against CAPRIN-1 at a concentration of 1 to 10 μg/mL, and then allowed to react on ice (or at 4° C.) for 1 hour.\nAfter the antibody reaction, cells were washed with 1% FCS-PBS (−) and then reacted with a fluorescently labeled anti-IgG secondary antibodies (FITC Goat anti-rabbit IgG (BD Biosciences, 554020), Alexa Fluor 488 anti-rabbit IgG (H+L) (Invitrogen, A21206), Alexa Fluor 647 anti-rabbit IgG (BioLegend, 406414). Alexa Fluor 488 F(ab′)2 anti-mouse IgG (H+L) (Invitrogen, A11017) or Alexa Fluor 488 anti-human IgG (H+L) (Invitrogen, A11013) at a concentration of 1 to 10 μg/mL for reaction with an antibody against CAPRIN-1, followed by 1 hour of reaction on ice (or at 4° C.). After reaction with the fluorescently labeled secondar antibodies, cells were washed with 1% FCS-PBS(−) and then reacted with a PI (propidium iodide) solution (DOJINDO, 341-07881) or Fixable Viability Stain 450 (BD Horizon) prepared at a concentration of 0.1 μg/mL for 15 minutes. Cells were then washed with 1% FCS-PBS(−) and then the scattered light intensity and fluorescence intensity were measured using a flow cytometer according to a standard method."}, "HCT-116": {"system": "HCT-116", "test": "Antitumor effect in HCT-116 cancer-bearing nude mice", "assay_type": "in vivo", "conditions": "HCT-116 subcutaneous in nude mice; 10 mg/kg twice a week into the tail vein", "experimental": "The antitumor effect of Dorsomorphin, which was an AMPK inhibitor, confirmed in Example 9 to have the effect of reducing the expression of the CAPRIN-1 protein on the membrane surface of the cancer cells, was confirmed. HCT-116, which were the cancer cells confirmed to express the CAPRIN-1 protein on the cell membrane surface were cultured in a normal culture flask using a complete medium containing 10% fetal bovine serum according to a standard method, and then mixed with RPMI-1640 medium containing 20% Matrigel Basement Membrane Matrix (Corning, 354234), and 1 to 2×10^7 cancer cells per mouse were subcutaneously inoculated into nude mice under anesthesia. After the cancer cells were inoculated, the size of the cancer in each cancer-bearing mouse was measured over time using a vernier caliper, and the tumor volume was calculated for each individual mouse using the formula: (length of the long axis of the cancer)×(length of the short axis of the cancer) 2×0.5 according to a standard method, and the average value of the administration group was calculated. After the cancer cells were inoculated, Dorsomorphin was administered at 10 mg/kg twice a week into the tail vein of each cancer-bearing mouse whose tumor size reached 100 to 200 mm^3 or more. […]"}, "OVCAR3": {"system": "OVCAR3", "test": "Soft agar colony formation assay (anchorage-independent colony-forming ability), OVCAR3", "assay_type": "cell-based, human", "conditions": "OVCAR3 treated with trypsin vs not treated, 2 to 4 weeks", "experimental": "(§2) 10^4 cells of each of the above cells were suspended in DMEM medium gel containing 10% fetal bovine serum containing 0.4% soft agar (Difco, 214220), added to a Petri dish with a diameter of 35 mm, and then incubated under an environment of 37° C. and 5% CO2 for 2 to 4 weeks. After incubation, the number of colonies formed in the gel was counted."}, "SK-MEL-5": {"system": "SK-MEL-5", "test": "Soft agar colony formation assay (anchorage-independent colony-forming ability), SK-MEL-5", "assay_type": "cell-based, human", "conditions": "SK-MEL-5 treated with trypsin vs not treated, 2 to 4 weeks", "experimental": "as §2\nSK-MEL-5, winch were the cancer cells confirmed to express the CAPRIN-1 protein on the cell membrane surface in Example 3, was cultured in a normal culture flask using a complete medium containing 10% fetal bovine serum under an environment of 37° C. and 5% CO2. The cultured SK-MEL-5 was collected from the flask using a cell scraper. […] On the other hand, […], SK-MEL-5, […], was used to evaluate the anchorage-independent colony-forming ability by soft agar colony formation assay. 10^4 cells of each of the above cells were suspended in a DMEM medium gel containing 10% fetal bovine serum containing 0.4% soft agar (Difco, 214220), added to a Petri dish with a diameter of 35 mm, and then incubated under an environment of 37° C. and 5% CO2 for 2 to 4 weeks."}, "[2]": {"system": "CAPRIN-1 protein on the cell membrane surface", "test": "Flow cytometry of CAPRIN-1 protein on the cell membrane surface after trypsin treatment", "assay_type": "cell-based, human", "conditions": "Trypsin/EDTA (0.05%) for 5 minutes, vs cells not treated", "experimental": "as §1, with “The expression of the CAPRIN-1 protein on the cell membrane surface of the cancer cells for which the expression of the CAPRIN-1 gene was confirmed in Example 1 was confirmed by flow cytometry. 2×10^5” for “2×10^5”, “hour. […]” for “hour.”\nSK-MEL-5 and OVCAR3, which were the cancer cells confirmed to express the CAPRIN-1 protein on the cell membrane surface in Example 3, were cultured in a normal culture flask using a complete medium containing 10% fetal bovine serum under an environment of 37° C. and 5% CO2. […] Portions of the collected cells were treated with a solution containing trypsin, which was a digestive enzyme, (Thermo, Trypsin/EDTA (0.05%)) for 5 minutes, and then the proportions of live cells and dead cells stained with trypan blue were measured and calculated using the trypan blue exclusion method according to a standard method, and then the cell density of live cells was calculated. […]"}}, "data": [{"molecule": "CCN(CC)CCCC(C)Nc1nc(C)cc(Nc2ccc3nc(C)cc(N)c3c2)n1.Cl.Cl.Cl", "note": "(racemic) [Rac1 inhibitor (CAS #1177865-17-6)]", "values": [{"measurement": "expression of the CAPRIN-1 protein on the membrane surface of the cancer cells", "setting": "[1]; final concentration 250 nM", "value": "clearly reduced"}]}, {"molecule": "Cn1c2cccc(=O)c-2nc2ccccc21", "note": "[Pyocyanin]", "values": [{"measurement": "expression of the CAPRIN-1 protein on the membrane surface of the cancer cells", "setting": "[1]; final concentration 20 μM", "value": "clearly reduced"}]}, {"molecule": "FC(F)(F)c1ccc(/C=C/c2nc(COc3ccc(CCCCn4ccnn4)cc3)co2)cc1", "note": "[Mubritinib]", "values": [{"measurement": "expression of the CAPRIN-1 protein on the membrane surface of the cancer cells", "setting": "[1]; final concentration 1 μM", "value": "clearly reduced"}]}, {"molecule": "c1cc(-c2cnn3cc(-c4ccc(OCCN5CCCCC5)cc4)cnc23)ccn1", "note": "[Dorsomorphin]", "values": [{"measurement": "tumor size, when the tumor size of the untreated cancer-bearing mice was taken as 100%", "setting": "HCT-116", "value": "≤ 70", "unit": "%"}]}, {"molecule": "Cc1cc(-c2ccc(CC(=O)Nc3ccc(-c4cccnc4)cc3)cc2)ccn1", "note": "[Wnt-C59]", "values": [{"measurement": "expression of the CAPRIN-1 protein on the membrane surface of the cancer cells", "setting": "[1]; final concentration 5 μM", "value": "clearly reduced"}]}, {"molecule": "COc1ccc(CNC(=O)Nc2ncc([N+](=O)[O-])s2)cc1", "note": "[GSK-3D inhibitor VIII]", "values": [{"measurement": "expression of the CAPRIN-1 protein on the membrane surface of the cancer cells", "setting": "[1]; final concentration 10 μM", "value": "clearly reduced"}]}, {"molecule": "Cc1ccc(C(=O)Cn2c3c(sc2=N)CCCC3)cc1", "note": "[Pifithrin-α]", "values": [{"measurement": "expression of the CAPRIN-1 protein on the membrane surface of the cancer cells", "setting": "[1]; final concentration 30 μM", "value": "clearly reduced"}]}, {"molecule": "O=C(N/N=C/c1ccc(O)c(O)c1)c1cc2ccccc2cc1O", "note": "[Dynasore]", "values": [{"measurement": "expression of the CAPRIN-1 protein on the membrane surface of the cancer cells", "setting": "[1]; final concentration 100 μM", "value": "clearly reduced"}]}, {"molecule": "COc1cccc(-c2cc(NCc3ccc4c(c3)OCO4)nc(N)n2)c1", "note": "[Wnt agonist 1]", "values": [{"measurement": "expression of the CAPRIN-1 protein on the membrane surface of the cancer cells", "setting": "[1]; final concentration 20 μM", "value": "clearly reduced"}]}, {"molecule": "trypsin (protein, UniProt P00761 9-231, looked up, EDTA solution, hydrolytic / digestive enzyme; solution containing trypsin (Thermo, Trypsin/EDTA (0.05%))) Trypsin: IVGGYTCAANSIPYQVSLNSGSHFCGGSLINSQWVVSAAHCYKSRIQVRLGEHNIDVLEGNEQFINAAKIITHPNFNGNTLDNDIMLIKLSSPATLNSRVATVSLPRSCAAAGTECLISGWGNTKSSGSSYPSLLQCLKAPVLSDSSCKSSYPGQITGNMICVGFLEGGKDSCQGDSGGPVVCNGQLQGIVSWGYGCAQKNKPGVYTKVCNYVNWIQQTIAAN", "values": [{"measurement": "number of colonies formed", "setting": "OVCAR3", "value": "significantly lower"}, {"measurement": "number of colonies formed", "setting": "SK-MEL-5", "value": "significantly lower"}, {"measurement": "expression of the CAPRIN-1 protein on the cell membrane surface", "setting": "[2]; OVCAR3", "value": "reduced"}, {"measurement": "expression of the CAPRIN-1 protein on the cell membrane surface", "setting": "[2]; SK-MEL-5", "value": "reduced"}]}]}
